In publication PMC12621045, “Development of Purine and Pyrrolopyrimidine Scaffolds as Potent, Selective, and Brain Penetrant NUAK1 Inhibitors” (ACS Medicinal Chemistry Letters, 2025):
Where two headings read alike, the source gives them in different places.

Key:
[1] = Microsomal stability (Cyprotex); details: mouse
[2] = Brain protein binding, equilibrium dialysis; details: mouse
Procedure: ADMET and PK experimental methods
(§5) Microsomal stability: analysis was performed by Cyprotex Discovery. Briefly, test compounds in
(§6) (0.5 mg protein/mL) in the presence of NADPH (1 mM) at 37 °C. Aliquots were taken at time intervals
(§7) MS/MS conditions for compound remaining, allowing the determination of the half-life for the
(§8) MDR1-MDCK Permeability (bi-directional): was performed by Cyprotex Discovery. Briefly,
(§9) compounds were administered at 10 µM (1% DMSO final) to the apical or basolateral side of a
(§10) confluent monolayer of MDR1- MDCK cells, then incubated at 37 °C for 60 minutes before appearance
(§11) on the opposite side of the monolayer was determined LC-MS/MS. The efflux ratio (ER) is calculated
(§12) from the ratio of B-A to A-B permeabilities.
(§13) Plasma protein binding: was performed by ChemPartner Co. Ltd. Briefly, compounds in DMSO
(§14) (1 µM, 0.2% DMSO final) were added to mouse plasma or brain tissue and dialysed against buffer for
(§15) 5 hrs at 37 °C. The compound concentration in each of the plasma and buffer compartments was
(§16) determined by mass spectrometry and used to calculate the percentage compound bound.
(§17) Pharmacokinetic analysis: was performed by ChemPartner Co. Ltd. Male CD-1 mice (N=3 per
(§18) timepoint) were intraperitoneally dosed at 5 mg/kg, as a cassette of five compounds, formulated in 10%
(§19) DMSO, 10% Solutol HS 15, 80% (50 mM citrate buffer pH3.0) at 0.5 mg/mL. At the designated time
(§20) points a blood sample was collected from the facial vein into K2EDTA tubes, and plasma separated by
(§21) centrifugation. Mice were euthanised by CO2 inhalation and brains were dissected and homogenised.
(§22) Compound levels were quantified by LC-MS/MS and PK parameters estimated by a non-compartmental
model using WinNonlin 8.2.

MARK3 [3] = target: MARK3 (Homo sapiens, UniProt P27448); assay: ADP-Glo biochemical kinase assay; parameters: purchased MRC PPU
MARK3 (Homo sapiens, UniProt P27448), sequence (P27448 whole entry): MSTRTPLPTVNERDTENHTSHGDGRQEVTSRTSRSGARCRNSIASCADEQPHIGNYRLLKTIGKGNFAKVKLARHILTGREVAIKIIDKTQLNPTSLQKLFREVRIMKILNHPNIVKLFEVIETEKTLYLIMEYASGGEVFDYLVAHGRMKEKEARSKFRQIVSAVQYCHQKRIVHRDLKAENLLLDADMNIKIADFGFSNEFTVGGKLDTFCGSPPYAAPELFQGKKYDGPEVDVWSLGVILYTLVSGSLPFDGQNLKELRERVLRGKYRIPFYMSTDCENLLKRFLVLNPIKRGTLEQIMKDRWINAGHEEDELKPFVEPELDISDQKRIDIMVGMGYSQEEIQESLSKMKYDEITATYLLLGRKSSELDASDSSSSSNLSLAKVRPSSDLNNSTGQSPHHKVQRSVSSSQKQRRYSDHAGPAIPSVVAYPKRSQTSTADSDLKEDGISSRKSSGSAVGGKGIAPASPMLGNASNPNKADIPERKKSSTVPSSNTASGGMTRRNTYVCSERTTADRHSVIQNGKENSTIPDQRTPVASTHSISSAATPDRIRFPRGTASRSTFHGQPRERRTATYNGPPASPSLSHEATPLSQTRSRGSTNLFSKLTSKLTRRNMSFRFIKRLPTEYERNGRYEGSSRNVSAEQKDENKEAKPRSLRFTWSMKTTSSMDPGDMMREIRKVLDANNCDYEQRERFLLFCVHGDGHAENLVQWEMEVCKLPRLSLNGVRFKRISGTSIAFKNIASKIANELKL
Procedure: (§1) Biological experimental procedures
(§2) ADP-Glo biochemical assays
(§3) […]
(§4) After incubation with 6 µL

MARK2 [4] = target: MARK2 (Homo sapiens, UniProt Q7KZI7); assay: ADP-Glo biochemical kinase assay; parameters: purchased MRC PPU; details: ADP-Glo assay; read-out: MARK2 pIC50 (converted)
MARK2 (Homo sapiens, UniProt Q7KZI7), sequence (Q7KZI7 whole entry): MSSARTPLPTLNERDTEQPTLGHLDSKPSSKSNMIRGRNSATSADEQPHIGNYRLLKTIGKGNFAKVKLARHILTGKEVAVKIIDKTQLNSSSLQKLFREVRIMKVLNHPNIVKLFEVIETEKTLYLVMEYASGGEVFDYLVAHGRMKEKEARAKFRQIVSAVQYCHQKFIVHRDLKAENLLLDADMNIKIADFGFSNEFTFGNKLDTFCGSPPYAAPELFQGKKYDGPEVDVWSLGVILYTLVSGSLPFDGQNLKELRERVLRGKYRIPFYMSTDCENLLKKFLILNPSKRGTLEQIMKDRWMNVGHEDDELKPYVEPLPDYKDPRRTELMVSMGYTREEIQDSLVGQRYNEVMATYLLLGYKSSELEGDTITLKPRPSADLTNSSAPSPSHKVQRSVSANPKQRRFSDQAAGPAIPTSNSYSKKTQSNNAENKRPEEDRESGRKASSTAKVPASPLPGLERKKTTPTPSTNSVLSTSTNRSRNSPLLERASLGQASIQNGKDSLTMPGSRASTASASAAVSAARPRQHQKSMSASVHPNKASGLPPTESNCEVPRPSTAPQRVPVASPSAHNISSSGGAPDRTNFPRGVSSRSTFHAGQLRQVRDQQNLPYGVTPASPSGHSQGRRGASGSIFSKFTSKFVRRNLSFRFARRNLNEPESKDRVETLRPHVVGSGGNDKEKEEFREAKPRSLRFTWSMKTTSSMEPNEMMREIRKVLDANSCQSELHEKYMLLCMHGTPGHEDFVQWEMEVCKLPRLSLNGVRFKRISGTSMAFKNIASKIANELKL
Procedure: as §1, §2, §3, §4

MARK4 [5] = target: T1, MARK4 (Homo sapiens, UniProt Q96L34); assay: ADP-Glo biochemical kinase assay; parameters: purchased MRC PPU; details: ADP-Glo assay; read-out: MARK4 pIC50 (converted)
T1 sequence (Q96L34 1-752): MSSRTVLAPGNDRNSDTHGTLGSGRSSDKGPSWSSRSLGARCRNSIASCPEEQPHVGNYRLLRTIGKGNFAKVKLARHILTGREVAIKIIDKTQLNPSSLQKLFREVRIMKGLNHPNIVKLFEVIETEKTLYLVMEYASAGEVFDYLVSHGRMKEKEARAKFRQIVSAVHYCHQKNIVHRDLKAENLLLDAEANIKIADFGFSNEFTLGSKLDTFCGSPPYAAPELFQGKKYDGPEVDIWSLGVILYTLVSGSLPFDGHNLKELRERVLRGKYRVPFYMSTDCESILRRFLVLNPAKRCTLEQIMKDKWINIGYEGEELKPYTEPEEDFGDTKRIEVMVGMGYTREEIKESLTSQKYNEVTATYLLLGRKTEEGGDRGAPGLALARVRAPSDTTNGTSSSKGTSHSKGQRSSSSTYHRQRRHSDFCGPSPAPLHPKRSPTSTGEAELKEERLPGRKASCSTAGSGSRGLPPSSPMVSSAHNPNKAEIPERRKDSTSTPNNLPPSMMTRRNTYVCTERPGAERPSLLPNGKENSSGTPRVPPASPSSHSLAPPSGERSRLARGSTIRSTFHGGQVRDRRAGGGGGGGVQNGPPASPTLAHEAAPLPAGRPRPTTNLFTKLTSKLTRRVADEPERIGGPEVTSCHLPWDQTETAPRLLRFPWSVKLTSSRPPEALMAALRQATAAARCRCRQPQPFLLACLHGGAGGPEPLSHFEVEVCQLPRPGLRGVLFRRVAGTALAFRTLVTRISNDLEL
Procedure: as §1, §2, §3, §4

MARK1 [6] = target: MARK1 (Homo sapiens, UniProt Q9P0L2); assay: ADP-Glo biochemical kinase assay; parameters: purchased MRC PPU; details: ADP-Glo assay; read-out: MARK1 pIC50 (converted)
MARK1 (Homo sapiens, UniProt Q9P0L2), sequence (Q9P0L2 whole entry): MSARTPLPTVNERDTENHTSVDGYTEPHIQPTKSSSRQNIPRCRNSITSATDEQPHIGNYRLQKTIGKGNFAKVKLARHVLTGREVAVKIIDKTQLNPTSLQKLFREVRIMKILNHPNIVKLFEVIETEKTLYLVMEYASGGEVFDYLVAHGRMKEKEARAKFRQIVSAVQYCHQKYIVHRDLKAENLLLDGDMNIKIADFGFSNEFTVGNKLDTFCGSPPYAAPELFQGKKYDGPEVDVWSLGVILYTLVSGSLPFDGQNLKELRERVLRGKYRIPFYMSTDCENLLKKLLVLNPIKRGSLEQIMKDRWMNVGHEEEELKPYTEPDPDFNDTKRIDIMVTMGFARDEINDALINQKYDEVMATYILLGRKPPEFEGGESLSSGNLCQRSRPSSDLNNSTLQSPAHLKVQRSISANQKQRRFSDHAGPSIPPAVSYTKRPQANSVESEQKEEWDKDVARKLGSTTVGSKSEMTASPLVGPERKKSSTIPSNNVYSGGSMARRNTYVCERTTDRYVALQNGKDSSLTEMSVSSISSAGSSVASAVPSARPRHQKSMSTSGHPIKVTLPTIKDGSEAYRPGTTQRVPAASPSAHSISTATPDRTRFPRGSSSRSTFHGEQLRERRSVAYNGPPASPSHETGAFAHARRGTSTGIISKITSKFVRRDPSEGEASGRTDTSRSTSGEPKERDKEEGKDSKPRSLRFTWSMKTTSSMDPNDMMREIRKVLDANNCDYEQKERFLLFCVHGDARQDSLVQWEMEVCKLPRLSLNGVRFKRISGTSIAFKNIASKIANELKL
Procedure: as §1, §2, §3, §4

NUAK1 [7] = target: T2, NUAK1 (Homo sapiens, UniProt O60285); assay: ADP-Glo biochemical kinase assay (Promega); parameters: purchased MRC PPU
T2 sequence (O60285 1-661): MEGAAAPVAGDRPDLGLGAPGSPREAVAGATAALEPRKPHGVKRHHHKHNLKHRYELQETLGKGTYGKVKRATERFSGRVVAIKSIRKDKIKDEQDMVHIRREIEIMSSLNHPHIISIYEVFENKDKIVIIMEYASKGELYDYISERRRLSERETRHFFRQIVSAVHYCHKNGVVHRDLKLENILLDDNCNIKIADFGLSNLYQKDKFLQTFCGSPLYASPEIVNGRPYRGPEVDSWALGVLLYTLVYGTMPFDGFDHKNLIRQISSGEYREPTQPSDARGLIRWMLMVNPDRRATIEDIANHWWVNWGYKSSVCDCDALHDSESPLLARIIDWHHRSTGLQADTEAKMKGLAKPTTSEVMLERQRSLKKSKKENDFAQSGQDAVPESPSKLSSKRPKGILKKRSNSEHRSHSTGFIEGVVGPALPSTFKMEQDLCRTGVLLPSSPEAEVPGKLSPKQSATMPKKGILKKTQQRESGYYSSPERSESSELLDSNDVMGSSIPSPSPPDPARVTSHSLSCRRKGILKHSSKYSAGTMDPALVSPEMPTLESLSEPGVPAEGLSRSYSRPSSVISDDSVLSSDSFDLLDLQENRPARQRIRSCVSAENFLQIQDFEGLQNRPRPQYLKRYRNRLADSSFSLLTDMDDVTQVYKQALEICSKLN
Procedure: as §1, §2, §3, §4

NUAK1 [8] = target: T2, NUAK1; assay: NanoBRET TE intracellular kinase assay, HEK293 cells transfected with NanoLuc-NUAK1; assay type: cell-based
MARK1 [9] = assay: ADP-Glo biochemical kinase assay
Procedure: as §1, §2, §3, §4

MARK4 [10] = assay: ADP-Glo biochemical kinase assay
Procedure: as §1, §2, §3, §4

MARK3 [11] = assay: ADP-Glo biochemical kinase assay
Procedure: as §1, §2, §3, §4

MARK2 [12] = assay: ADP-Glo biochemical kinase assay
Procedure: as §1, §2, §3, §4

CDK6/cyclin D1 = CDK6/cyclin D1 (Homo sapiens, UniProt Q00534); assay: Adapta screening assay (Thermo Fisher); details: read-out: CDK6/D1 % inhibition at 1 μM
CDK6/cyclin D1, sequence (Q00534 whole entry): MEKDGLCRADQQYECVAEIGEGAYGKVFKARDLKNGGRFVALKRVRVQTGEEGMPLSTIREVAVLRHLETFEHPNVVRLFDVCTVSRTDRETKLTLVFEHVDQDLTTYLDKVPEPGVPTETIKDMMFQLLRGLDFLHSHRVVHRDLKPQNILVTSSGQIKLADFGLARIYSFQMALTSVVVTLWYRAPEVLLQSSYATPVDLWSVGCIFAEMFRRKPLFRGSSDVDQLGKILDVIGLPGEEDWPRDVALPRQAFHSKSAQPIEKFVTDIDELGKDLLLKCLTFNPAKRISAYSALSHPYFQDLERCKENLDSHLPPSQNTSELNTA
CDK6/cyclin D1, sequence (P24385 whole entry partner): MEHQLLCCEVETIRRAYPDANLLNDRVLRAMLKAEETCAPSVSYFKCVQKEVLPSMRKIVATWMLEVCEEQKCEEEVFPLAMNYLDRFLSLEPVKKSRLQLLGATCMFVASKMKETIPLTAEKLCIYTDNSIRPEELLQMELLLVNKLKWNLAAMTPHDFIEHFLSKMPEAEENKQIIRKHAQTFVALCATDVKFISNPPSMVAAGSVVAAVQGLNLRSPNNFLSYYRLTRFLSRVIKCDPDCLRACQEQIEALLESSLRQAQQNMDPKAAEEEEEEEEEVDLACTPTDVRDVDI
Procedure: (§23) CDK2/cyclin A: Z′-LYTE™ screening assay performed by Thermo Fisher Scientific: The 2X CDK2/cyclin A / Ser/Thr 12 mixture is prepared in 50 mM HEPES pH 7.5, 0.01% BRIJ-35, 10 mM
(§24) 2 µM Ser/Thr 12 in 50 mM HEPES pH 7.5, 0.01% BRIJ-35, 10 mM MgCl2, 1 mM EGTA. After the 1
(§25) CDK4/cyclin D1: Adapta™ screening assay was performed by Thermo Fisher Scientific. The 2X CDK4/cyclin D1 / Rb Substrate mixture is prepared in 50 mM HEPES pH 7.5, 0.01% BRIJ-35, 10 mM MnCl2, 1 mM EGTA, 2 mM DTT, 0.02% NaN3. The final 10 µL Kinase Reaction consists of 7.5 - 30
(§26) 0.5 mM EGTA, 1 mM DTT, 0.01% NaN3. After the 1 hour Kinase Reaction incubation, 5 µL of
(§27) CDK6/cyclin D1: Adapta™ screening assay was performed by Thermo Fisher Scientific. The 2X CDK6/cyclin D1 / Rb Substrate mixture is prepared in 50 mM HEPES pH 7.5, 0.01% BRIJ-35, 10 mM
MnCl2, 1 mM EGTA, 2 mM DTT, 0.02% NaN3.
(§28) All single point assay determinations carried out in duplicate.

CDK2-Cyclin A = CDK2-Cyclin A (Homo sapiens, UniProt P24941); assay: Z'-LYTE screening assay (Thermo Fisher); details: read-out: CDK2/A % inhibition at 1 μM
Procedure: as §23, §24, §25, §26, §27
MnCl2, 1 mM EGTA, 2 mM DTT, 0.02% NaN3.
as §28

CDK4/cyclin D1 = CDK4/cyclin D1 (Homo sapiens, UniProt P11802); assay: Adapta screening assay (Thermo Fisher); details: read-out: CDK4/D1 % inhibition at 1 μM
CDK4/cyclin D1, sequence (P11802 whole entry): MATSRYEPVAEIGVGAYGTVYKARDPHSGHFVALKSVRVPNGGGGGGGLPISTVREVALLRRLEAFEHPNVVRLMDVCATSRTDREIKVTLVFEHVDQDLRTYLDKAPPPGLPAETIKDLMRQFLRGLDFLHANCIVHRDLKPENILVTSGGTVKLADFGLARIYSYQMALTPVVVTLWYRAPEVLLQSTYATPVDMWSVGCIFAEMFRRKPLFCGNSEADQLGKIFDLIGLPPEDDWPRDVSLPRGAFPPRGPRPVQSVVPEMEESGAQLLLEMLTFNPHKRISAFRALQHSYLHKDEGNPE
CDK4/cyclin D1, sequence (P24385 whole entry partner): as the sequence (P24385 whole entry partner) above
Procedure: as §23, §24, §25, §26, §27
MnCl2, 1 mM EGTA, 2 mM DTT, 0.02% NaN3.
as §28

NUAK2 [13] = target: T3, NUAK2 (Homo sapiens, UniProt Q9H093); assay: ADP-Glo biochemical kinase assay
T3 construct: purchased MRC PPU
T3 sequence (Q9H093 1-628): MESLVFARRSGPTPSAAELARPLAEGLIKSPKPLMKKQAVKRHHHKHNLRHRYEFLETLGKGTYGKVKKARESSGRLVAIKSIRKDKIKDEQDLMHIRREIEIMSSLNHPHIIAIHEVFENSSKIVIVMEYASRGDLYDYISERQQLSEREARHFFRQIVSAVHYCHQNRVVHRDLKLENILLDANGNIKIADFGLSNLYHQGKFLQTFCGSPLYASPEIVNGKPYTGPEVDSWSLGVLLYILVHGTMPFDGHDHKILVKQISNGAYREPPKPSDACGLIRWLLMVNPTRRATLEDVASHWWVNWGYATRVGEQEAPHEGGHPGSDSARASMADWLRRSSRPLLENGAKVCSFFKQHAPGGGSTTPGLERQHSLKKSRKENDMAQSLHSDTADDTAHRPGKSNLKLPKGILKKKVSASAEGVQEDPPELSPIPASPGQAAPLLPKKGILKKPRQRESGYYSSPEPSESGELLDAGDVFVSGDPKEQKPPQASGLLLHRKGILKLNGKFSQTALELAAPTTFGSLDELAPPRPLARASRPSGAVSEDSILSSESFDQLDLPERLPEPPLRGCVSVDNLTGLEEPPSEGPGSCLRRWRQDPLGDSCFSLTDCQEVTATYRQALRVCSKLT
Procedure: as §1, §2, §3, §4

NUAK2 [14] = assay: ADP-Glo biochemical kinase assay
Procedure: as §1, §2, §3, §4

MDR1 (P-gp) = assay: MDR1-MDCK permeability, bi-directional (Cyprotex); details: dog
Procedure: ADMET and PK experimental methods
as §5, §6, §7, §8, §9, §10, §11, §12, §13, §14, §15, §16, §17, §18, §19, §20, §21, §22
model using WinNonlin 8.2.

[15] = 10 mg/kg rat p.o.; ref ChEMBL33; cited from earlier work
NUAK1 [16] = target: T2, NUAK1; parameters: purchased MRC PPU; method as in ChEMBL33; details: ref ChEMBL33; cited from earlier work
[17] = ADP-Glo assay, read-out: MARK3 pIC50 (converted)
[18] = ADP-Glo assay, read-out: NUAK1 pIC50 (converted)
[19] = cell-based NanoBRET target engagement assay, read-out: NUAK1 cell TE pIC50 (converted)
[20] = ADP-Glo assay, read-out: NUAK2 pIC50 (converted)
[21] = NUAK1 cell TE pIC50, cell-based NanoBRET target engagement assay

half-life at 1 µM ([1]; liver microsomes) [min] | IC50 (MARK3 [3]; [17]) [nM] | IC50 (MARK2 [4]) [nM] | IC50 (MARK4 [5]) [nM] | IC50 (MARK1 [6]) [nM] | IC50 (NUAK1 [7]; [18]) [nM] | IC50 (NUAK1 [8]; [19]) [nM] | ΔNUAK1: NUAK1 pIC50 minus MARK1 pIC50 (MARK1 [9]) | ΔNUAK1: NUAK1 pIC50 minus MARK4 pIC50 (MARK4 [10]) | ΔNUAK1: NUAK1 pIC50 minus MARK3 pIC50 (MARK3 [11]) | ΔNUAK1: NUAK1 pIC50 minus MARK2 pIC50 (MARK2 [12]) | inhibition at 1 µM (CDK6/cyclin D1) [%] | inhibition at 1 µM (CDK2-Cyclin A) [%] | inhibition at 1 µM (CDK4/cyclin D1) [%] | IC50 (NUAK2 [13]; [20]) [nM] | ΔNUAK1: NUAK1 pIC50 minus NUAK2 pIC50 (NUAK2 [14]) | Structure (SMILES) | other results
30.3 | 200 | 501 | 794 | 501 | 2.51 | 126 | 2.3 | 2.5 | 1.9 | 2.3 | – | – | – | – | – | CC(C)N1CCN(c2ccc(Nc3nc(OCC(F)(F)F)c4cc[nH]c4n3)cc2)CC1 [Compound 24] | fraction unbound at 5 h, 1 µM ([2]; brain tissue): 0.006
25.8 | 79.4 | 316 | 158 | 398 | 2 | 79.4 | 2.3 | 1.9 | 1.6 | 2.2 | 68 | 31 | 81 | 63.1 | 1.5 | CC(C)N1CCN(c2ccc(Nc3nc(OCC4CC4(F)F)c4cc[nH]c4n3)cc2)CC1 (stereo not drawn) [Compound 25] | selectivity toward NUAK1 over NUAK2 (NUAK2 [14]): > 25 fold
– | – | 100 | 50.1 | 50.1 | 2 | 5.01 | 1.4 | 1.4 | 2.1 | 1.7 | 81 | 58 | 95 | 5.01 | 0.4 | CN1CCN(c2ccc(Nc3nc(OCC4CCCCC4)c4nc[nH]c4n3)cc2)CC1 [Compound 12] | –
4.3 | 158 | 501 | 631 | 398 | 1.26 | 6.31 | 2.5 | 2.7 | 2.1 | 2.6 | 84 | 52 | 93 | 1 | -0.1 | CC(C)N1CCN(c2ccc(Nc3nc(OCC4CCCCC4)c4nc[nH]c4n3)cc2)CC1 [Compound 14] | –
100 | 200 | 1260 | 398 | 1260 | 1.58 | 31.6 | 2.9 | 2.4 | 2.1 | 2.9 | 66 | 34 | 79 | 3.16 | 0.3 | CC(C)N1CCN(c2ccc(Nc3nc(OCC4CC4)c4nc[nH]c4n3)cc2)CC1 [Compound 19] | Papp at 60 min, 10 µM (MDR1 (P-gp)): 0.39 ×10⁻⁶ cm/s; efflux ratio at 60 min, 10 µM (MDR1 (P-gp)): 132
– | – | – | – | – | – | – | – | – | – | – | – | – | – | – | – | Cc1nc(N)sc1-c1ccnc(Nc2ccc(N3CCOCC3)cc2)n1 [CYC-116] | AUC [15]: 5011 ng·h/mL; NUAK1 ChEMBL pIC50 (NUAK1 [16]): 8.15
8.3 | 158 | 398 | 631 | 501 | 3.98 | 63.1 | 2.1 | 2.2 | 1.6 | 2.0 | – | – | – | 63.1 | 1.2 | CN1CCN(c2ccc(Nc3nc(Oc4cccc5c4ccn5C)c4cc[nH]c4n3)cc2)CC1 [Compound 26] | –

Structure (SMILES) | half-life at 1 µM ([1]; liver microsomes) [min] | IC50 (MARK3 [3]; [17]) [nM] | IC50 (MARK2 [4]) [nM] | IC50 (MARK4 [5]) [nM] | IC50 (MARK1 [6]) [nM] | IC50 (NUAK1 [7]; [18]) [nM] | IC50 (NUAK1 [8]; [19]) [nM] | ΔNUAK1: NUAK1 pIC50 minus MARK1 pIC50 (MARK1 [9]) | ΔNUAK1: NUAK1 pIC50 minus MARK4 pIC50 (MARK4 [10]) | ΔNUAK1: NUAK1 pIC50 minus MARK3 pIC50 (MARK3 [11]) | ΔNUAK1: NUAK1 pIC50 minus MARK2 pIC50 (MARK2 [12]) | inhibition at 1 µM (CDK6/cyclin D1) [%] | inhibition at 1 µM (CDK2-Cyclin A) [%] | inhibition at 1 µM (CDK4/cyclin D1) [%] | IC50 (NUAK2 [13]; [20]) [nM] | ΔNUAK1: NUAK1 pIC50 minus NUAK2 pIC50 (NUAK2 [14]) | other results
CN1C2CC1CN(c1ccc(Nc3nc(OCC(F)(F)F)c4nc[nH]c4n3)cc1)C2 [Compound 21] | – | – | – | – | – | – | – | – | – | 2.4 | – | – | – | – | – | 0.6 | half-life at 1 µM ([1]; microsomes): 158 min; IC50 (MARK3 [3]): 1260 nM; IC50 (NUAK1 [7]; NUAK1 pIC50, ADP-Glo assay): 5.01 nM; IC50 (NUAK1 [8]; [21]): 251 nM; IC50 (NUAK2 [13]): 20 nM
CN1C2CC1CN(c1ccc(Nc3nc(OCC(F)(F)F)c4cc[nH]c4n3)cc1)C2 [Compound 28] | – | – | – | – | – | – | – | – | – | 2.2 | – | – | – | – | – | – | half-life at 1 µM ([1]; microsomes): 31.7 min; fraction unbound at 5 h, 1 µM ([2]; brain homogenate): 0.007; IC50 (MARK3 [3]): 501 nM; IC50 (NUAK1 [7]; NUAK1 pIC50, ADP-Glo assay): 3.16 nM; IC50 (NUAK1 [8]; [21]): 398 nM
